Legend:
Experiment in all cases: biochemical
Assay type in all cases: biochemical
382 unique human kinases [1] = molecular target: T1, 382 unique human kinases (Homo sapiens, UniProt Q9NWZ3); details: kinase IRAK4, compound 10 uM; for remaining activity at 10 µM: read-out: % Enzyme Activity (relative to DMSO controls)
T1 construct: purchased Reaction Biology (HotSpot contract assay)
T1 sequence (Q9NWZ3 1-460): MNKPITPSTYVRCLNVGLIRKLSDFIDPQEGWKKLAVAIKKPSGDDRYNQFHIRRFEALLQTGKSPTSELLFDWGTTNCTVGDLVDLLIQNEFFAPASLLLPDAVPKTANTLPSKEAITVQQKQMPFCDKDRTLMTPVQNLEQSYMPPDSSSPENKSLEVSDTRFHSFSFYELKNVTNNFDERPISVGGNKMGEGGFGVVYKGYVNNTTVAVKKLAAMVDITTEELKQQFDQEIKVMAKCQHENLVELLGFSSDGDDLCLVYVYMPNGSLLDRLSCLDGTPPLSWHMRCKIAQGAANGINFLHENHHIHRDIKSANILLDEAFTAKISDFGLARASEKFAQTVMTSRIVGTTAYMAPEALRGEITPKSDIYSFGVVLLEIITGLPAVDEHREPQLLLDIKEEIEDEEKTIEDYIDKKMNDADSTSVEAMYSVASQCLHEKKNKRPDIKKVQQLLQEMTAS

382 unique human kinases [2] = molecular target: T2, 382 unique human kinases (Homo sapiens, UniProt Q16816); details: kinase PHKg1, compound 10 uM; for remaining activity at 10 µM: read-out: % Enzyme Activity (relative to DMSO controls)
T2 construct: purchased Reaction Biology (HotSpot contract assay)
T2 sequence (Q16816 whole entry): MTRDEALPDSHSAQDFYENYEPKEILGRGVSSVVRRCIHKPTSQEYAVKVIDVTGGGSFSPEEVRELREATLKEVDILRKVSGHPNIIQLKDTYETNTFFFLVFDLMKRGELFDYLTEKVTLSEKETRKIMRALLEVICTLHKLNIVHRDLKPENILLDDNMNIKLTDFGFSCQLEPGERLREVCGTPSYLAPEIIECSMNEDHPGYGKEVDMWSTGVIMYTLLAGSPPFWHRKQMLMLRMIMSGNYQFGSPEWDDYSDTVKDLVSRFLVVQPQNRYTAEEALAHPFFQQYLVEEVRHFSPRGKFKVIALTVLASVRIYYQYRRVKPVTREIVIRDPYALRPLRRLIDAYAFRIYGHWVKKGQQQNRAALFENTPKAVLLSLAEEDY

382 unique human kinases [3] = molecular target: T3, 382 unique human kinases (Homo sapiens, UniProt O00238); details: kinase ALK6/BMPR1B, compound 10 uM; for remaining activity at 10 µM: read-out: % Enzyme Activity (relative to DMSO controls)
T3 construct: purchased Reaction Biology (HotSpot contract assay)

382 unique human kinases [4] = molecular target: T4, 382 unique human kinases (Homo sapiens, UniProt P45984); details: kinase JNK2, compound 10 uM; for remaining activity at 10 µM: read-out: % Enzyme Activity (relative to DMSO controls)
T4 construct: purchased Reaction Biology (HotSpot contract assay)
T4 sequence (P45984 whole entry): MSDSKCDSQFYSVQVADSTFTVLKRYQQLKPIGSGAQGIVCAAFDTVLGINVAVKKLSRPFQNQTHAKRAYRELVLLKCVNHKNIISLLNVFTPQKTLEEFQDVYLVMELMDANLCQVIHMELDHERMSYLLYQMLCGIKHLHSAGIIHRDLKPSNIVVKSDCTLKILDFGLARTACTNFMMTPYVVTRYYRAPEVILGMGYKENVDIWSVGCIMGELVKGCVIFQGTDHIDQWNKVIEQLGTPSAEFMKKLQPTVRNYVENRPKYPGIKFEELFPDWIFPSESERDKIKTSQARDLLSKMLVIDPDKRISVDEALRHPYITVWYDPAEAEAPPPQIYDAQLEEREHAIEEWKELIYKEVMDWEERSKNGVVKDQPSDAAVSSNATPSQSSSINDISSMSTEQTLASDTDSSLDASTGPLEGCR

382 unique human kinases [5] = molecular target: T5, 382 unique human kinases (Homo sapiens, UniProt P31749); details: kinase AKT1, compound 10 uM; for remaining activity at 10 µM: read-out: % Enzyme Activity (relative to DMSO controls)
T5 construct: purchased Reaction Biology (HotSpot contract assay)

382 unique human kinases [6] = molecular target: T6, 382 unique human kinases (Homo sapiens, UniProt Q9H2G2); details: SLK/STK2, 10 uM; for remaining activity at 10 µM: read-out: % Enzyme Activity (relative to DMSO controls)
T6 construct: purchased Reaction Biology (HotSpot contract assay)

382 unique human kinases [7] = molecular target: T7, 382 unique human kinases (Homo sapiens, UniProt Q9NR20); details: DYRK4, 10 uM; for remaining activity at 10 µM: read-out: % Enzyme Activity (relative to DMSO controls)
T7 construct: purchased Reaction Biology (HotSpot contract assay)
T7 sequence (Q9NR20 1-520): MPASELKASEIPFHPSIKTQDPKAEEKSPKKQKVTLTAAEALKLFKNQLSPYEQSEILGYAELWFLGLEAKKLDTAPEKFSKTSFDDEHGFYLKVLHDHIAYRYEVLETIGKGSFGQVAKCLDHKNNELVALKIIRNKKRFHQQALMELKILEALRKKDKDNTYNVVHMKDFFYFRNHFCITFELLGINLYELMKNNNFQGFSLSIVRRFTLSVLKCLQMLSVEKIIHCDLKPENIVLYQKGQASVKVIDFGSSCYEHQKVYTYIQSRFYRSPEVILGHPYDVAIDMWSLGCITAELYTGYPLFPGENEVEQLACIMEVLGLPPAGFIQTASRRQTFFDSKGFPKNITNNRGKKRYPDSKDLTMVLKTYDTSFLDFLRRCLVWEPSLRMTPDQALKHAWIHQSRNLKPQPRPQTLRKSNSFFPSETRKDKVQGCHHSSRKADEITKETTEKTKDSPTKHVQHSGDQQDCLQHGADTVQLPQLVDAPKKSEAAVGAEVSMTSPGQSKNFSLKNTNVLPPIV

382 unique human kinases [8] = molecular target: T8, 382 unique human kinases (Homo sapiens, UniProt Q9Y243, G171R); details: AKT3 (G171R), 10 uM; for remaining activity at 10 µM: read-out: % Enzyme Activity (relative to DMSO controls)
T8 construct: purchased Reaction Biology (HotSpot contract assay)

382 unique human kinases [9] = molecular target: T9, 382 unique human kinases (Homo sapiens, UniProt Q9H4A3); details: WNK1, 10 uM; for remaining activity at 10 µM: read-out: % Enzyme Activity (relative to DMSO controls)
T9 construct: purchased Reaction Biology (HotSpot contract assay)
T9 sequence (Q9H4A3 whole entry): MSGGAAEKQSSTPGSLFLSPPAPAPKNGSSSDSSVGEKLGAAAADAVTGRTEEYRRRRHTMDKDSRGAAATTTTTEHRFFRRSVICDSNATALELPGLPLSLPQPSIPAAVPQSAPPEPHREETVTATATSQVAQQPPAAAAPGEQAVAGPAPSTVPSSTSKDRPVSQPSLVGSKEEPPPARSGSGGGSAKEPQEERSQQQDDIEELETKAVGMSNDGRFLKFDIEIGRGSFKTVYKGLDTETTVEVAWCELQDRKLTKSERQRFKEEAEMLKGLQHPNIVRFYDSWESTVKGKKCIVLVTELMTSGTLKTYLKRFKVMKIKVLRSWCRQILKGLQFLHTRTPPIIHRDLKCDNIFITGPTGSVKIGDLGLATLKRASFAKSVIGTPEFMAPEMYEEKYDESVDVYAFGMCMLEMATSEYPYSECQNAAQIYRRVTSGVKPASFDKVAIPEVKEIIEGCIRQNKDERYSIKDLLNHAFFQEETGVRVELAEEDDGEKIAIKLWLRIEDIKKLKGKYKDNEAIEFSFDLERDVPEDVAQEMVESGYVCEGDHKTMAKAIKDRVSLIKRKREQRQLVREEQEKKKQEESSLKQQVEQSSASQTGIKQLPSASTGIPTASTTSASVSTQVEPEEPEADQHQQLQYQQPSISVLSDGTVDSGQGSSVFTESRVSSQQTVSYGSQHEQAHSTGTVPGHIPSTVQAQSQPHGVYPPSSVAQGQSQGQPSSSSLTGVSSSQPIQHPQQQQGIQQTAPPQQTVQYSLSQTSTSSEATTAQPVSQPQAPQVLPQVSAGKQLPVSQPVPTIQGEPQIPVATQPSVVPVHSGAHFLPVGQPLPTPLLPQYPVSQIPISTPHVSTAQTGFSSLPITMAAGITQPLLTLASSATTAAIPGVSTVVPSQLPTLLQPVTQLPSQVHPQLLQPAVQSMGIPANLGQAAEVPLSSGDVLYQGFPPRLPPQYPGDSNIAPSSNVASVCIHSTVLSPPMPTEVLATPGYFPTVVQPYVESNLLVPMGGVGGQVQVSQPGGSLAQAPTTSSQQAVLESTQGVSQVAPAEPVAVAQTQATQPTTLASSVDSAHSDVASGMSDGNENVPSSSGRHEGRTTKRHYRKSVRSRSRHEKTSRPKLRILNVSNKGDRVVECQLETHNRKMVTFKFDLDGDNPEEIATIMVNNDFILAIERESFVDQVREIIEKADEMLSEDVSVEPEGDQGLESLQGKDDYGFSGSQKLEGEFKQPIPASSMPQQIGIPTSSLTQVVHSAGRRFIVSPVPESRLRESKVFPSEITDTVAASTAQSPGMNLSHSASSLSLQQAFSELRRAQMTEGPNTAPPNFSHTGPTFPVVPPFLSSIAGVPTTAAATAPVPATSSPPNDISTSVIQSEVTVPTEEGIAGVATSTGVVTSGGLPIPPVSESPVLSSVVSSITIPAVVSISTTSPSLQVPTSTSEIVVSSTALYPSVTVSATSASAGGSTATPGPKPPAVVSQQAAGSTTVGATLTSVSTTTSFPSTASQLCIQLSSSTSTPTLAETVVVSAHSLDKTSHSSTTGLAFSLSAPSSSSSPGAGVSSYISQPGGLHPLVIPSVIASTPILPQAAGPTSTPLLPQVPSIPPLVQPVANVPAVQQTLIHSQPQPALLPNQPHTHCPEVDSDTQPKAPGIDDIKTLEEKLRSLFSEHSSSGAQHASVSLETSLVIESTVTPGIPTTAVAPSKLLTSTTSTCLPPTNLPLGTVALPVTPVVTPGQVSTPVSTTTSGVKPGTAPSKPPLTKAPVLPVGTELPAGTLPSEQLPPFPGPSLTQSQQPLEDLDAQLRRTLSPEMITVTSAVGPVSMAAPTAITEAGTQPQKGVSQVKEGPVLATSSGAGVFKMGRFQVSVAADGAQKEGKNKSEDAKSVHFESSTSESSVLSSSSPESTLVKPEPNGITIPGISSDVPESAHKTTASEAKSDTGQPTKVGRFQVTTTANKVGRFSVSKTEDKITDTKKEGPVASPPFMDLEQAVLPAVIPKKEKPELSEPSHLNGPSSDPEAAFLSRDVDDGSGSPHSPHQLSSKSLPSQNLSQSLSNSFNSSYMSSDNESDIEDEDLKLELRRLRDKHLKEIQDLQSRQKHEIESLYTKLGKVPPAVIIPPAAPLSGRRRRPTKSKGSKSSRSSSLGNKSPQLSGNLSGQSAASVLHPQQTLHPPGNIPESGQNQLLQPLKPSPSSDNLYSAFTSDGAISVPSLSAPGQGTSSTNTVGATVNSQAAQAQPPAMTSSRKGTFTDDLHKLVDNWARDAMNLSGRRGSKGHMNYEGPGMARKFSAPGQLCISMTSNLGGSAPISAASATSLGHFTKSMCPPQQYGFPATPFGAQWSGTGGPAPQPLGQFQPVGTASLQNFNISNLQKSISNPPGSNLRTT

382 unique human kinases [10] = molecular target: T10, 382 unique human kinases (Homo sapiens, UniProt Q9HAZ1); details: CLK4, [ATP] 2.5 µM, compound 10 uM; for remaining activity at 10 µM: read-out: % Enzyme Activity (relative to DMSO controls)
T10 construct: purchased Reaction Biology (HotSpot contract assay)

382 unique human kinases [11] = molecular target: T11, 382 unique human kinases (Homo sapiens, UniProt O00141); details: SGK1, 10 uM; for remaining activity at 10 µM: read-out: % Enzyme Activity (relative to DMSO controls)
T11 construct: purchased Reaction Biology (HotSpot contract assay)
T11 sequence (O00141 1-431): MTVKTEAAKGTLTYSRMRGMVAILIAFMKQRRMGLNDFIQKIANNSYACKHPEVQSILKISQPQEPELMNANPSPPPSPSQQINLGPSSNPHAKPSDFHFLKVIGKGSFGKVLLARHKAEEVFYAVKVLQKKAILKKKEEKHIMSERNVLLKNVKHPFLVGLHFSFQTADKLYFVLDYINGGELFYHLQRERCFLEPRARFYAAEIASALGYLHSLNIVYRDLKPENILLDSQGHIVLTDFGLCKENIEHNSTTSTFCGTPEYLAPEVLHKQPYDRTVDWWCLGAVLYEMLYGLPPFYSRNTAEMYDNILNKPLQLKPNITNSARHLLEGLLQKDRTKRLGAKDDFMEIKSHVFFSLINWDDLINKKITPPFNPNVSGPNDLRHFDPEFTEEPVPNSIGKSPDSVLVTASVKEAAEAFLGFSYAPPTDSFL

382 unique human kinases [12] = molecular target: T12, 382 unique human kinases (Homo sapiens, UniProt P00519, Q252H); details: ABL1 (Q252H), [ATP] 20 µM, compound 10 uM; for remaining activity at 10 µM: read-out: % Enzyme Activity (relative to DMSO controls)
T12 construct: purchased Reaction Biology (HotSpot contract assay)

382 unique human kinases [13] = molecular target: T13, 382 unique human kinases (Homo sapiens, UniProt P08581, Y1230A); details: c-MET (Y1230A), 10 uM; for remaining activity at 10 µM: read-out: % Enzyme Activity (relative to DMSO controls)
T13 construct: purchased Reaction Biology (HotSpot contract assay)

382 unique human kinases [14] = molecular target: T14, 382 unique human kinases (Homo sapiens, UniProt P10721, V559D); details: c-Kit (V559D), [ATP] 20 µM, compound 10 uM; for remaining activity at 10 µM: read-out: % Enzyme Activity (relative to DMSO controls)
T14 construct: purchased Reaction Biology (HotSpot contract assay)
T14 sequence (P10721 26-976 V559D): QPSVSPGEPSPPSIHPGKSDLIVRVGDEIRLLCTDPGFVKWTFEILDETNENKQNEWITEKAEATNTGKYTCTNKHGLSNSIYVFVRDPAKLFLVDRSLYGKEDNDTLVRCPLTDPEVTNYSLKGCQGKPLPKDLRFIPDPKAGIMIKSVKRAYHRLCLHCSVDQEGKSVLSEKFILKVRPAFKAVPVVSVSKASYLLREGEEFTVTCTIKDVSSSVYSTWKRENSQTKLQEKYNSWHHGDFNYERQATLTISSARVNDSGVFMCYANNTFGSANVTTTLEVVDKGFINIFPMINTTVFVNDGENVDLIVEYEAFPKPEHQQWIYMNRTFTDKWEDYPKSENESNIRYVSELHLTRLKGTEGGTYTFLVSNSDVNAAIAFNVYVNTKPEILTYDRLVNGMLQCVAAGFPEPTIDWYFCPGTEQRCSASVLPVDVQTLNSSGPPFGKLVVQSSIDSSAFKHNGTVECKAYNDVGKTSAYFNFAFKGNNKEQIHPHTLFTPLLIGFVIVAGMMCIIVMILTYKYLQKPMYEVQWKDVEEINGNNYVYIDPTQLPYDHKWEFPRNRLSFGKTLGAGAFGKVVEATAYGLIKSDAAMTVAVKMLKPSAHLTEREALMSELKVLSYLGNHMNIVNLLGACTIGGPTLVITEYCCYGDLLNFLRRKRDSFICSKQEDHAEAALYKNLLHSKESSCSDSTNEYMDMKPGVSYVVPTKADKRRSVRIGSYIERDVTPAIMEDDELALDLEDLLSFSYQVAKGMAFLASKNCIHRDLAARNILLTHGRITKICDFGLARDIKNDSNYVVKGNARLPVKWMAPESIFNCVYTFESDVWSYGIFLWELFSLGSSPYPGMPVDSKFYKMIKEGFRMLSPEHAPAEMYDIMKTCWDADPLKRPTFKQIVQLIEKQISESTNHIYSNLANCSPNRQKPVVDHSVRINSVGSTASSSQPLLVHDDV

382 unique human kinases [15] = molecular target: T15, 382 unique human kinases (Homo sapiens, UniProt Q16288); details: TRKC, [ATP] 100 µM
T15 construct: purchased Reaction Biology (HotSpot contract assay)
T15 sequence (Q16288 32-839): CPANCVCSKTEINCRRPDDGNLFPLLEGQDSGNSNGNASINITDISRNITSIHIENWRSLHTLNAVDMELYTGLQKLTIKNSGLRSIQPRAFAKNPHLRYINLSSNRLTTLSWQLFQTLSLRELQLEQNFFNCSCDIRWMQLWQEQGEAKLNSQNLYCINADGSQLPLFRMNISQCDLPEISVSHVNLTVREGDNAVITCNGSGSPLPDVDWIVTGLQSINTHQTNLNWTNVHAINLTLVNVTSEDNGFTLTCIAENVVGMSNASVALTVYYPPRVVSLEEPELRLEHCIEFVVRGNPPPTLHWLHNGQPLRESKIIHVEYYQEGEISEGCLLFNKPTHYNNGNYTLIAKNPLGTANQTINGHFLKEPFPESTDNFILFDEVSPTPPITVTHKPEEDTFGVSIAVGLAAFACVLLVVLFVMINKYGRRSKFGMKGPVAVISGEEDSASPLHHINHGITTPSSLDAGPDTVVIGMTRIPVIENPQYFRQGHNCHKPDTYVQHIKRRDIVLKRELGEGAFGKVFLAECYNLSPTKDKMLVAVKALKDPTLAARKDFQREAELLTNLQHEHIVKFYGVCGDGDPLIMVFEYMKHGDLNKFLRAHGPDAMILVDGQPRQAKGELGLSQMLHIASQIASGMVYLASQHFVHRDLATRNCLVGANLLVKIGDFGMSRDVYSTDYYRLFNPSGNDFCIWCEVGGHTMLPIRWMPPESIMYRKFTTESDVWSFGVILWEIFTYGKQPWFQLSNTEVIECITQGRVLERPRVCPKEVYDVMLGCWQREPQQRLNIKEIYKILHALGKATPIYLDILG

382 unique human kinases [16] = molecular target: T16, 382 unique human kinases (Homo sapiens, UniProt P07949, V804E); details: RET (V804E), 10 uM; for remaining activity at 10 µM: read-out: % Enzyme Activity (relative to DMSO controls)
T16 construct: purchased Reaction Biology (HotSpot contract assay)

382 unique human kinases [17] = molecular target: T17, 382 unique human kinases (Homo sapiens, UniProt P00519); details: ABL1, [ATP] 40 µM
T17 construct: purchased Reaction Biology (HotSpot contract assay)

[18] = compound 1 uM, read-out: % Enzyme Activity (relative to DMSO controls)
[19] = compound 10 uM, read-out: % Enzyme Activity (relative to DMSO controls)

SMILES | remaining activity at 10 µM (382 unique human kinases [1]) [%] | remaining activity at 10 µM (382 unique human kinases [2]) [%] | remaining activity at 10 µM (382 unique human kinases [3]) [%] | remaining activity at 10 µM (382 unique human kinases [4]) [%] | remaining activity at 10 µM (382 unique human kinases [5]) [%] | remaining activity at 10 µM (382 unique human kinases [6]) [%] | remaining activity at 10 µM (382 unique human kinases [7]) [%] | remaining activity at 10 µM (382 unique human kinases [8]) [%] | remaining activity at 10 µM (382 unique human kinases [9]) [%] | remaining activity at 10 µM (382 unique human kinases [10]) [%] | remaining activity at 10 µM (382 unique human kinases [11]) [%] | remaining activity at 10 µM (382 unique human kinases [12]) [%] | remaining activity at 10 µM (382 unique human kinases [13]) [%] | remaining activity at 10 µM (382 unique human kinases [14]) [%] | remaining activity at 10 µM (382 unique human kinases [15]; [19]) [%] | remaining activity at 10 µM (382 unique human kinases [16]) [%] | other results
CC(C)c1cc(-c2n[nH]c(=O)n2-c2ccc3c(ccn3C)c2)c(O)cc1O [Ganetespib (STA9090)] | 81.5 | 88.5 | 94.5 | 90 | 84.4 | 79.5 | 96.8 | 67.1 | 94.2 | – | – | – | – | – | – | – | –
CC(C)c1cc(-c2n[nH]c(=O)n2-c2ccc3c(ccn3C)c2)c(O)cc1O [Ganetespib] | – | – | – | – | – | – | – | – | – | 20.7 | 99 | 3.59 | 117 | 40.7 | 7.62 | 92.2 | remaining activity at 1 µM (382 unique human kinases [15]; [18]): 30.6%; remaining activity at 1 µM (382 unique human kinases [17]; [18]): 18.3%
CCNC(=O)c1noc(-c2cc(C(C)C)c(O)cc2O)c1-c1ccc(CN2CCOCC2)cc1 [Luminespib (AUY-922)] | 118 | 98.2 | 94.8 | 99.7 | 98.4 | 90.2 | 66.1 | 98.6 | 70.4 | – | – | – | – | – | – | – | % Enzyme Activity (relative to DMSO controls) (382 unique human kinases [1]): 106.93%; % Enzyme Activity (relative to DMSO controls) (382 unique human kinases [2]): 96.94%; % Enzyme Activity (relative to DMSO controls) (382 unique human kinases [3]): 93.58%; % Enzyme Activity (relative to DMSO controls) (382 unique human kinases [4]): 99.14%; % Enzyme Activity (relative to DMSO controls) (382 unique human kinases [5]): 97.59%; % Enzyme Activity (relative to DMSO controls) (382 unique human kinases [6]): 89.63%; % Enzyme Activity (relative to DMSO controls) (382 unique human kinases [7]): 63.33%; % Enzyme Activity (relative to DMSO controls) (382 unique human kinases [8]): 93.37%; % Enzyme Activity (relative to DMSO controls) (382 unique human kinases [9]): 68.64%
CCNC(=O)c1noc(-c2cc(C(C)C)c(O)cc2O)c1-c1ccc(CN2CCOCC2)cc1 [Luminespib] | – | – | – | – | – | – | – | – | – | 72.1 | 100 | 5.39 | 101 | 69.6 | 96.8 | 93.3 | % Enzyme Activity (relative to DMSO controls) (382 unique human kinases [10]): 71.69%; % Enzyme Activity (relative to DMSO controls) (382 unique human kinases [11]): 99.71%; % Enzyme Activity (relative to DMSO controls) (382 unique human kinases [12]): 5.25%; % Enzyme Activity (relative to DMSO controls) (382 unique human kinases [13]): 98.90%; % Enzyme Activity (relative to DMSO controls) (382 unique human kinases [14]): 69.57%; % Enzyme Activity (relative to DMSO controls) (382 unique human kinases [15]; compound 10 uM): 94.48%; % Enzyme Activity (relative to DMSO controls) (382 unique human kinases [16]): 91.98%; % Enzyme Activity (relative to DMSO controls) (382 unique human kinases [17]; compound 10 uM): 6.22%; remaining activity at 10 µM (382 unique human kinases [17]; [19]): 6.93%
